Results on eight molecules are retold here after patent US20220241227A1, “COMPOSITIONS COMPRISING HDAC INHIBITORS AND RETINOIDS” (The Regents of The University of California, priority 2019, published 2022).

Data set [1] deals with miR-22. The data set is described as follows: miR-22 induction in HCT116 cells. It counts as cell-based. The note with it: RA 10 μM, SAHA 5 μM, butyrate 5 mM, propionate 10 mM, valerate 10 mM.
Text: Mean±SD, *p<0.05; **p<0.01; ***p<0.0001 vs. DMSO control, #p<0.05 vs. single agent treatment.
For data set [2], the system named is colon tumors in xenograft models. The note with it: combination: RA 0.025 mg/g and butyrate 1.2 mg/g, intraperitoneal, 5 times/week, 2 weeks; cited from earlier work.
For data set [3], the system named is HDAC1, HDAC4, and SIRT1. The note with it: liver cancer Huh7 and colon cancer HCT116 cells, published data; cited from earlier work.
Data set [4] relates to Swiss mice. The note with it: oral; cited from earlier work.
Data set [5] deals with miR-22. The conditions noted are these: published data, cells not given; cited from earlier work.
For data set [6], the system named is RARβ. Nature of the data set: RARβ mRNA and protein levels in HCT116 cells. It counts as cell-based. The conditions noted are these: 48 hrs, RA 10 μM, butyrate 5 mM, SAHA 5 μM.

Where two headings read alike, the source gives them in different places.

As for `CC(=O)O` [acetate], in data set [1], the miR-22 induction result is “unable to induce miR-22”.

Take “miR-22: tumor suppressor microRNA, SEQ ID NO:1 (AAGCUGCCAGUUGAAGAACUGU; listed as RNA, chemistry not fully specified; listed as Homo sapiens)”: the “treatment of colon tumors in xenograft models” value in data set [2] is “effective in treating colon tumors”. In addition, in data set [3], the “HDAC1, HDAC4, and SIRT1 levels” value is given as “reduced”.

Turning to `CC1=C(/C=C/C(C)=C/C=C/C(C)=C/C(=O)O)C(C)(C)CCC1` [RA, all-trans retinoic acid], the miR-22 induction result in data set [1] was “induced”. The LD50 in data set [4] is on record as 1.1 mg/g.

With `CCCCC(=O)O` [valerate], the miR-22 induction entry in data set [1] was “induced”; in data set [5], “induce miR-22”.

`O=C(CCCCCCC(=O)Nc1ccccc1)NO` [SAHA, suberanilohydroxamic acid]: the miR-22 induction result in data set [1] was “induced”; in data set [5], “induces miR-22”.

`CCC(=O)O` [propionate]: the miR-22 induction result in data set [1] was “induced”; in data set [5] it was “induce miR-22”.

For the molecule “EGF: promotes growth and does not has HDAC inhibitory effect (NSDSECPLSHDGYCLHDGVCMYIEALDKYACNCVVGYIGERCQYRDLKWWELR; Epidermal growth factor; UniProt P01133 971-1023, looked up)”, the “RARβ expression (mRNA and protein)” value in data set [6] is “did not induce RARβ”.

In the case of `O=CO` [formate], the miR-22 induction entry in data set [1] is given as “unable to induce miR-22”.
